pIC50: −log10 of the molar value.

Assay [1] has as its system NCI-H358 cells containing homozygous KRAS-G12C activating mutation (p-ERK). As to conditions: Homo sapiens, NCI-H358, 2 h, read-out: G12C H358 IC50 (nM).
Procedure: Procedure for Cellular Phospho-ERK Assay, G12C
NCI-H358 cells (ATCC® CRL-5807™), containing homozygous KRAS-G12C activating mutation, were cultured in T150 flask in growth medium (RPMI medium 1640-GlutaMAX™—I (ThermoFisher Scientific 61870) containing 10% fetal bovine serum (ThermoFisher Scientific 10091148)). The cells were harvested in growth medium after TrypLE (ThermoFisher scientific 12604021) digestion and were seeded in a 384-well collagen coated cell culture plate (Corning 356702) at a density of 15,000 cells/well, and incubated at 37° C., 5% CO2 overnight. […] RPMI medium 1640-GlutaMAX™—I was added to the intermediate plate and the contents of the intermediate plate were then transferred to the 384-well collagen coated cell culture plate, which was incubated at 37° C., 5% CO2 for 2 hours. After removal of medium from the collagen coated cell culture plate, cells were lysed in lysis buffer from Alpha SureFire® Ultra™ Multiplex p-ERK and total ERK assay kit (PerkinElmer MPSU-PTERK) containing Halt™ Protease and Phosphatase inhibitor cocktail (ThermoFisher Scientific 78446) at room temperature with constant shaking at 300 rpm for 30 minutes. The cell lysates were then transferred to an OptiPlate-384 plate (PerkinElmer 6005620), and the phosphorylation of ERK (p-ERK) and total ERK levels were detected by Alpha SureFire® Ultra™ Multiplex p-ERK kit and total ERK assay kit (PerkinElmer MPSU-PTERK) following the manufacturer's protocol. Assay plates were read on an EnVision Multimode Plate Reader (PerkinElmer), and the ratio of p-ERK vs. total ERK in each well was used as the final readout. Dose response curves were analyzed using a 4-parameter logistic model to calculate IC50 values using Spotfire software.
Assay [2] addresses Recombinant KRAS-G12D (SEQ ID NO: 2) (Homo sapiens, UniProt P01116, G12D). The assay can be described thus: SOS-catalyzed guanine nucleotide exchange (GNE) assay, KRAS-G12D.
Procedure: (§1) Specifically, the SOS-catalyzed nucleotide exchange assay utilizes a preformed time-resolved fluorescence resonance energy transfer (TR-FRET) complex containing a specific biotinylated RAS protein (KRAS-G12C/V/D, HRAS, NRAS; described above) with BODIPY-GDP, and Terbium-streptavidin. Test compounds are preincubated with this complex for 60 minutes.
(§2) To assemble the preformed TR-FRET complexes, each biotinylated RAS protein is diluted to 2 μM in an EDTA Buffer (20 mM HEPES, 50 mM sodium chloride, 10 mM EDTA, and 0.01% Tween) and incubated at room temperature for one hour. This mixture is then further diluted to 90 nM in an Assay Buffer (20 mM HEPES, 150 mM sodium chloride, 10 mM magnesium chloride, and 0.005% Tween) containing 15 nM of Terbium-Streptavidin (Invitrogen, catalog #PV3577) and 900 nM of BODIPY-GDP (Invitrogen, catalog #G22360) and incubated at room temperature for six hours. It should be noted that this preformed TR-FRET complex for each of the RAS proteins was made ahead of time, aliquoted and stored at −80° C. until the day of the experiment.
(§3) Once titrations are made, 10 nL of the diluted compounds is acoustically dispensed into a 384-well assay plate (Corning, catalog #3820) using an Echo 550 (Labcyte). Each well of the assay plate subsequently receives 3 μL of a specific 3× RAS preformed TR-FRET complex and 3 μL of Assay Buffer and is incubated at room temperature for 60 minutes (preincubation time). […] The final reaction in each well of 9 μL consists of 3 mM GTP, and the specific RAS and SOS proteins in the following concentrations: KRAS-G12C/SOS=3 nM/40 nM, KRAS-G12D/SOS=1 nM/40 nM, KRAS-G12V/SOS=1.25 nM/160 nM, HRAS/SOS=1.25 nM/40 nM, and NRAS/SOS=1.25 nM/40 nM.
(§4) The TR-FRET signal is measured on an Envision (PerkinElmer) plate reader: Excitation filter=340 nm; emission 1=495 nm; emission 2=520 nm; dichroic mirror=D400/D505; delay time=100 ms. The signal of each well is determined as the ratio of the emission at 520 nm to that at 495 nm. […] The apparent effect as a function of compound concentration is fit to a four-parameter logistic equation to calculate IC50 values using Spotfire software.
In assay [3] the test system is AsPC-1 cells containing homozygous KRAS-G12D activating mutation (p-ERK). The following applies: Homo sapiens, ASPC1, 2 h, read-out: KRAS G12D ASPC-1 IC50 (nM).
Procedure: Procedure for Cellular Phospho-ERK Assay, G12D
AsPC-1 cells (ATCC® CRL-1682™), containing homozygous KRAS-G12D activating mutation, were cultured in T150 flask in growth medium (RPMI medium 1640-GlutaMAX™—I (ThermoFisher Scientific 61870) containing 10% fetal bovine serum (ThermoFisher Scientific 10091148)). The cells were harvested in growth medium after TrypLE (ThermoFisher scientific 12604021) digestion and were seeded in a 384-well collagen coated cell culture plate (Corning 356702) at a density of 15,000 cells/well, and incubated at 37° C., 5% CO2 overnight. […] RPMI medium 1640-GlutaMAX™—I was added to the intermediate plate and the contents of the intermediate plate were then transferred to the 384-well collagen coated cell culture plate, which was incubated at 37° C., 5% CO2 for 2 hours. After removal of medium from the collagen coated cell culture plate, cells were lysed in lysis buffer from Alpha SureFire® Ultra™ Multiplex p-ERK and total ERK assay kit (PerkinElmer MPSU-PTERK) containing Halt™ Protease and Phosphatase inhibitor cocktail (ThermoFisher Scientific 78446) at room temperature with constant shaking at 300 rpm for 30 minutes. The cell lysates were then transferred to an OptiPlate-384 plate (PerkinElmer 6005620), and the phosphorylation of ERK (p-ERK) and total ERK levels were detected by Alpha SureFire® Ultra™ Multiplex p-ERK kit and total ERK assay kit (PerkinElmer MPSU-PTERK) following the manufacturer's protocol. Assay plates were read on a EnVision Multimode Plate Reader (PerkinElmer), and the ratio of p-ERK vs. total ERK in each well was used as the final readout. Dose response curves were analyzed using a 4-parameter logistic model to calculate IC50 values using Spotfire software.
Assay [4] addresses Recombinant KRAS-G12V (SEQ ID NO: 3) (Homo sapiens, UniProt P01116, G12V). The assay can be described thus: SOS-catalyzed guanine nucleotide exchange (GNE) assay, KRAS-G12V.
Procedure: as §1, §2, §3, §4
A further assay deals with G13D (Homo sapiens, UniProt P01116, G13D). The assay can be described thus: Guanine nucleotide exchange (GNE) assay, G13D. It is filed as biochemical.
The target in another assay is HRAS (SEQ ID NO: 4) (Homo sapiens, UniProt P01112). As to the kind of experiment: SOS-catalyzed guanine nucleotide exchange (GNE) assay, HRAS.
The target of the next assay is NRAS (SEQ ID NO: 5) (Homo sapiens, UniProt P01111). As to the kind of experiment: SOS-catalyzed guanine nucleotide exchange (GNE) assay, NRAS.
NRAS (SEQ ID NO: 5), sequence (P01111 with tags, fused parts or gaps): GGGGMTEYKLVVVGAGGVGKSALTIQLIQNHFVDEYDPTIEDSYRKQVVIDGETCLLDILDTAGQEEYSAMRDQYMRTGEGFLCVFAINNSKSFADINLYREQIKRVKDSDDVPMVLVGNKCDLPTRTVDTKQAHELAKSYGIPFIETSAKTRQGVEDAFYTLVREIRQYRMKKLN

Recombinant KRAS-G12V (SEQ ID NO: 3), sequence (P01116 with tags, fused parts or gaps isoform P01116-2 G12V): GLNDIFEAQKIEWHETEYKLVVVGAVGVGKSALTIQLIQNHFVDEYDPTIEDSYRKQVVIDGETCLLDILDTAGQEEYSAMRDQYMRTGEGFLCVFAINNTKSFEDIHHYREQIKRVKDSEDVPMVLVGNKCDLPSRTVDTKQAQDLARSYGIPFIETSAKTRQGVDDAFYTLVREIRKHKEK
G13D, sequence (P01116 1-188 isoform P01116-2 G13D): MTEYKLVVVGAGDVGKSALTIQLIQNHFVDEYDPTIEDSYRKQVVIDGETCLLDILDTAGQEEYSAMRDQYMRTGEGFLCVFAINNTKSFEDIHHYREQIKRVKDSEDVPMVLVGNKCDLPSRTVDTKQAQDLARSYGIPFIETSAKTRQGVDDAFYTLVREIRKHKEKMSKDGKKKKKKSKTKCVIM
Recombinant KRAS-G12D (SEQ ID NO: 2), sequence (P01116 with tags, fused parts or gaps isoform P01116-2 G12D): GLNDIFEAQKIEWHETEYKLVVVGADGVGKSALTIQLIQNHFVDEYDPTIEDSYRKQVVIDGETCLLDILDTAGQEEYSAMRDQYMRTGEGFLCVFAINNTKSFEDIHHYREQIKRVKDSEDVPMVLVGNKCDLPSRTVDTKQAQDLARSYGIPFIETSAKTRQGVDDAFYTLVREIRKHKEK
HRAS (SEQ ID NO: 4), sequence (P01112 with tags, fused parts or gaps): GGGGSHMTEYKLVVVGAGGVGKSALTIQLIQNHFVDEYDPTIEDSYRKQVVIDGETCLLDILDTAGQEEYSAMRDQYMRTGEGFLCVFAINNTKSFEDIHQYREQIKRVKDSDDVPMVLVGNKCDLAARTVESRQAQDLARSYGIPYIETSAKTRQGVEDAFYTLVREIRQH
Procedure for G13D: as §4

For `Oc1cc(-c2c(F)cc3c(N4CCCC(O)(C(F)(F)F)C4)nc(OC[C@@]45CCCN4C[C@H](F)C5)nc3c2F)c2c(Cl)cccc2c1` (single isomer, unassigned) [Ex-38], the results for the IC50 in assay [1] and in assay [3] were 2170 nM and 6860 nM, respectively. Further, the pIC50 was 6.07 in assay [2], 6.22 in assay [4] and 6.11 on G13D.

Consider `CN(C)CC1(COc2nc(N3CCCC(C)(O)C3)c3cc(F)c(-c4cc(O)cc5ccccc45)c(F)c3n2)CC1` (stereo not shown) [Ex-8, 1-(2-((1-((dimethylamino)methyl)cyclopropyl)methoxy)-6,8-difluoro-7-(3-hydroxynaphthalen-1-yl)quinazolin-4-yl)-3-methylpiperidin-3-ol], for which the pIC50 on HRAS (SEQ ID NO: 4) and against NRAS (SEQ ID NO: 5) was < 5.00 each time.

For the compound `C#Cc1cccc2cc(O)cc(-c3ncc4c(N5CCC[C@@](C)(O)C5)nc(OCC56CCCN5CCC6)nc4c3F)c12` [Ex-22, (R)-1-(7-(8-ethyny1-3-hydroxynaphthalen-1-yl)-8-fluoro-2-((tetrahydro-1H-pyrrolizin-7a(5H)-yl)methoxy)pyrido[4,3-d]pyrimidin-4-yl)-3-methylpiperidin-3-ol], the half-inhibitory concentration (IC50) in assay [1] amounted to 305 nM; in assay [3], 1160 nM. Besides, the pIC50 is 9.00 in assay [2], 8.70 in assay [4] and 9.00 on G13D.

For `C#Cc1c(F)ccc2cccc(-c3c(F)cc4c(N5CCC[C@@](C)(O)C5)nc(OC[C@@]56CCCN5[C@H](COC(=O)N(C)C)CC6)nc4c3F)c12` [Ex-45, ((3S,7aS)-7a-(((7-(8-ethynyl-7-fluoronaphthalen-1-yl)-6,8-difluoro-4-((R)-3-hydroxy-3-methylpiperidin-1-yl)quinazolin-2-yl)oxy)methyl)hexahydro-1H-pyrrolizin-3-yl)methyl dimethylcarbamate], the values for the IC50 in assay [1] and in assay [3] were 331 nM and 379 nM, respectively. In addition, the pIC50 in assay [2] was 7.64; in assay [4], 7.92; against G13D, 7.85.

Take `CN(C)CC1(COc2nc(N3CCCC(C)(O)C3)c3cc(F)c(-c4cc(O)ccc4OC(F)(F)F)c(F)c3n2)CC1` (stereo not shown) [Ex-9, 1-(2-((1-((dimethylamino)methyl)cyclopropyl)methoxy)-6,8-difluoro-7-(5-hydroxy-2-(trifluoromethoxy)phenyl)quinazolin-4-yl)-3-methylpiperidin-3-ol]: the IC50 was determined as 4210 nM in assay [1] and 1880 nM in assay [3]. Besides, the values for the pIC50 (in assay [2]; in assay [4]; against G13D) were 6.50, 6.42 and 6.66, respectively.

In the case of `Cc1cc(N)nc(-c2c(Cl)cc3c(N4CCCC(C)(O)C4)nc(OC[C@@]45CCCN4C[C@H](F)C5)nc3c2F)c1C(F)(F)F` (single isomer, unassigned) [Ex-26], the half-inhibitory concentration (IC50) in assay [1] was found to be 7730 nM; in assay [3], 3920 nM. Also, the negative logarithm of the IC50 (pIC50) in assay [2] was 5.70; in assay [4] it was 5.81; on G13D, 6.15.

For the compound `Oc1cc(-c2c(F)cc3c(N4CCCCC(O)C4)nc(OC[C@@]45CCCN4C[C@H](F)C5)nc3c2F)c2c(Cl)cccc2c1` (stereo partly drawn) [Ex-34, 1-(7-(8-chloro-3-hydroxynaphthalen-1-yl)-6,8-difluoro-2-(((2R,7aS)-2-fluorotetrahydro-1H-pyrrolizin-7a(5H)-yl)methoxy)quinazolin-4-yl)azepan-3-ol], the half-maximal inhibitory concentration (IC50) in assay [1] stood at 3620 nM; in assay [3] it was 6300 nM. Further, the negative logarithm of the IC50 (pIC50) in assay [2] is 6.55; in assay [4] it was 6.23; against G13D, 6.36.

As to `C#Cc1cccc2cc(O)cc(-c3ncc4c(N5CCC[C@@](C)(O)C5)nc(OC[C@@]56CCCN5C[C@H](F)C6)nc4c3F)c12` [Ex-23, (R)-1-(7-(8-ethynyl-3-hydroxynaphthalen-1-yl)-8-fluoro-2-(((2R,7aS)-2-fluorotetrahydro-1H-pyrrolizin-7a(5H)-yl)methoxy)pyrido[4,3-d]pyrimidin-4-yl)-3-methylpiperidin-3-ol], the IC50 in assay [1] amounted to 14 nM; in assay [3], 65 nM. For the same compound, the pIC50 in assay [2] was 9.00; in assay [4], 9.00; at G13D it was 8.70.

Consider `C#Cc1cccc2cc(O)cc(-c3ncc4c(N5CCC[C@@](C)(O)C5)nc(OC[C@]5(CN(C)C)CC5(F)F)nc4c3F)c12` [Ex-24, (R)-1-(2-(((R)-1-((dimethylamino)meth-yl)-2,2-difluorocyclopropyl)methoxy)-7-(8-ethynyl-3-hydroxynaphthalen-1-yl)-8-fluoropyrido[4,3-d]pyrimidin-4-yl)-3-methylpiperidin-3-ol], for which the IC50 in assay [1] was 2 nM; in assay [3] it was 20 nM. For the same compound, the pIC50 (in assay [2]; in assay [4]; against G13D) was 9.00 in each case.

In the case of `Cc1cc2[nH]ncc2c(-c2c(F)cc3c(N4CCC[C@H](O)CC4)nc(OC[C@@]45CCCN4C[C@H](F)C5)nc3c2F)c1C(F)(F)F` [Ex-40, (4S)-1-(6,8-difluoro-2-(((2R,7aS)-2-fluorotetrahydro-1H-pyrrolizin-7a(5H)-yl)methoxy)-7-(6-methyl-5-(trifluoromethyl)-1H-indazol-4-yl)quinazolin-4-yl)azepan-4-ol], the IC50 in assay [1] worked out at 981 nM; in assay [3], 1330 nM. Also, the pIC50 was 6.76 in assay [2], 6.33 in assay [4] and 6.03 against G13D.

On to `C#Cc1cccc2cc(O)cc(-c3c(F)cc4c(N5CCCC(O)(CO)C5)nc(OC[C@@]56CCCN5C[C@H](F)C6)nc4c3F)c12` (stereo partly drawn) [Ex-48, 1-(7-(8-ethynyl-3-hy-droxynaphthalen-1-yl)-6,8-difluoro-2-(((2R,7aS)-2-fluorotetrahydro-1H-pyrrolizin-7a(5H)-yl)methoxy)quinazolin-4-yl)-3-(hydroxymethyl)piperidin-3-ol], for which the figures for the IC50 in assay [1] and in assay [3] were 180 nM and 376 nM, respectively. Also, the negative logarithm of the IC50 (pIC50) in assay [2] is 7.89; in assay [4] it was 8.30; against G13D, 8.15.

For the compound `CC1(O)CCCN(c2nc(OC[C@@]34CCCN3C[C@H](F)C4)nc3c(F)c(-c4cc(O)cc5cccc(Cl)c45)c(F)cc23)C1` (stereo partly drawn) [Ex-29, 1-(7-(8-chloro-3-hydroxynaphthalen-1-yl)-6,8-difluoro-2-(((2R,7aS)-2-fluorotetrahydro-1H-pyrrolizin-7a(5H)-yl)methoxy)quinazolin-4-yl)-3-methylpiperidin-3-ol], the IC50 was > 30000 nM in assay [1] and 900 nM in assay [3]. Also, the results for the pIC50 (in assay [2]; in assay [4]; against G13D) were 7.82, 7.77 and 7.89, respectively.

For the compound `C#Cc1cccc2cc(O)cc(-c3c(F)cc4c(N5CCCC(O)(C(F)F)C5)nc(OC[C@@]56CCCN5C[C@H](F)C6)nc4c3F)c12` (stereo partly drawn) [Ex-43, 3-(difluoromethyl)-1-(7-(8-ethynyl-3-hydroxynaphthalen-1-yl)-6,8-difluoro-2-(((2R,7aS)-2-fluorotetrahydro-1H-pyrrolizin-7a(5H)-yl)methoxy)quinazolin-4-yl)piperidin-3-ol], the IC50 in assay [1] is 58 nM; in assay [3] it was 215 nM. Moreover, the pIC50 in assay [2] is 7.89; in assay [4], 8.00; against G13D, 8.10.

As to `CC1(O)CCCCN(c2nc(OC[C@@]34CCCN3C[C@H](F)C4)nc3c(F)c(-c4cc(O)cc5cccc(Cl)c45)c(F)cc23)C1` (single isomer, unassigned) [Ex-36], the IC50 stood at 3580 nM in assay [1] and 1860 nM in assay [3]. Besides, the pIC50 in assay [2] was 6.40; in assay [4] it was 6.52; against G13D, 6.85.

Regarding `C#Cc1c(F)ccc2cccc(-c3c(F)cc4c(N5CCC[C@@](C)(O)C5)nc(OC[C@@]56CCCN5C[C@H](F)C6)nc4c3F)c12` [Ex-47, (3R)-1-(7-(8-ethynyl-7-fluoronaphthalen-1-yl)-6,8-difluoro-2-(((2R,7aS)-2-fluorotetrahydro-1H-pyrrolizin-7a(5H)-yl)methoxy)quinazolin-4-yl)-3-methylpiperidin-3-ol], the IC50 came to 979 nM in assay [1] and 2070 nM in assay [3]. Besides, the results for the pIC50 (in assay [2]; in assay [4]; against G13D) were 6.62, 6.41 and 6.76, respectively.

For the compound `CC1(O)CN(c2nc(OC[C@@]34CCCN3C[C@H](F)C4)nc3c(F)c(-c4cc(O)cc5cccc(Cl)c45)c(F)cc23)CCC1(F)F` (stereo partly drawn) [Ex-31, 1-(7-(8-chloro-3-hydroxynaphthalen-1-yl)-6,8-difluoro-2-(((2R,7aS)-2-fluorotetrahydro-1H-pyrrolizin-7a(5H)-yl)methoxy)quinazolin-4-yl)-4,4-difluoro-3-methylpiperidin-3-ol], the IC50 in assay [1] was determined as 468 nM; in assay [3] it was 1730 nM. The figures for the pIC50 (in assay [2]; in assay [4]; on G13D) were 6.01, 6.45 and 6.72, respectively.

As to `CC1(O)CN(c2nc(OC[C@@]34CCCN3C[C@H](F)C4)nc3c(F)c(-c4cc(O)cc5cccc(Cl)c45)c(F)cc23)CCC1F` (stereo partly drawn) [Ex-32, 1-(7-(8-chloro-3-hydroxynaphthalen-1-yl)-6,8-difluoro-2-(((2R,7aS)-2-fluorotetrahydro-1H-pyrrolizin-7a(5H)-yl)methoxy)quinazolin-4-yl)-4-fluoro-3-methylpiperidin-3-ol], the IC50 in assay [1] is 118 nM; in assay [3], 261 nM. Also, the results for the pIC50 (in assay [2]; in assay [4]; against G13D) were 7.23, 7.40 and 7.80, respectively.

The record behind these values is patent US20260200925A1, “SMALL MOLECULE INHIBITORS OF KRAS MUTATED PROTEINS” (MERCK SHARP & DOHME LLC, priority 2021, published 2026).
